Assay results: patent US6765105B2, “Compound and pharmaceutical composition of antiplasmid effect and the preparation thereof” (priority 2000, dated 2004)
Entries after “also recorded” stand apart in the source; their conditions may differ. Like-named read-outs stand apart in the source and are kept apart here. Marks after values point to notes of the source that are not given here.

How the values were obtained:
mice = system: mice
Procedure: We used the usual dose of inoculation i.e. 0,2 ml per 10 g weight. […] The exact definition of this value should be done in an institute dealing with toxicology and clinical pharmacology.

[1] = system: Staphylococcus aureus (resistant to gentamycine)
Procedure: (§1) The bacteriostatic effect was inspected on a liquid culture medium using method of serial dilution. We inoculated 0.05 ml of culture of the examined bacteria being in exponential phase (i.e. of optical density 0.4) in dilution by 10^−4 into broth culture medium MTE of 5 ml. The culture of E. coli of optical density 0.4 contained 4.1 to 5.2×10^8, the one of Staphylococcus aureus of similar density contained 2.2 to 8.2×10^7 settlement building units per ml. […] We examined thereafter the smallest concentration of each compound, which still inhibits the proliferation of the identical number of bacteria. The examinations for the antiplasmid effect could be begun after having been obtained the mentioned date, because these effects can be detected only at values lower than MIC.
(§2) The previously established MIC (minimal inhibiting concentration) values are as follows: […]

[2] = system: Acinetobactes anitratus (resistant to Chlorocid)
Procedure: as §1, §2

[3] = system: Escherichia coli (resistant to Chlorocid)
Procedure: as §1, §2

plasmid = test: In vitro experiments for antiplasmid effect (plasmid eliminating ability); assay type: cell-based; settings: for Plasmid eliminating ability: in concentration of 50 μg/ml; for Plasmid eliminating ability / Eliminating ability (in words): in vitro
Excerpt: The elimination of R-plasmids and F′lac plasmids, as well as inhibition of transmission of R-plasmid transfer were studied.
These are the compounds under mark FC-1181, FC-1186 and Sila-439. The compound sila-429 (75%) was compared against three representatively antibiotic resistant strains of bacteria, as follows: the polyresistant Acinetobacter anitratus, the resistant to gentamycine staphylococcus aureus and the Methycilline resistant Staphylococcus aureus strains.
(§3) We made a dilution of 10^−4 from a preliminary culture of 16 hours of E. coli strains containing R-factor, and dosed 0.05 ml therefrom into a broth culture medium MTE of 5 ml. We completed the cultures with the examined compounds in different concentrations and kept them at the temperature 37° C. during 24 to 48 hours without aeration. We made different dilutions from the cultures and streaked 0.1 ml of them onto EP agar plates. Having incubated them during the night we made a replication from the plates containing the cultures onto plates containing the corresponding antibiotics.
(§4) We made a dilution of 10^−4 from a culture of 16 hours of the bacteria strain K12 LE140 of E. coli and we inoculated 0.05 ml (1 to 5×10^3 cells) of it into 5 ml of broth culture medium MTE. The cultures with plasmid eliminating compounds added in different concentrations were incubated at 37° C. during 24 hours. We made dilutions from the contents of tubes, in which growth of bacteria were detected, then 0.1 ml of these dilutions were streaked onto EMB agar. The plates were incubated at 37° C. during 24 hours, then we counted the settlements of bacteria of types lac^+ and lac^−, which provides basis to calculate the percent of inhibition.

[4] = system: E. coli K12 F′lac (PBR322) plasmid; assay type: cell-based
Procedure: as §3
The plates containing antibiotics were incubated at 37° C. during 24 hours then the settlements of bacteria on them were compared to those on the master plates and the requirement of nutrition of the bacteria was examined.

[5] = system: RN 4220 S. aureus, plasmid pIP 855; assay type: cell-based; settings: without substance 1.8
[6] = system: RN 4220 S. aureus, plasmid pBI 109 PGL; assay type: cell-based; settings: without substance 68.7
[7] = system: RN 4220 S. aureus, plasmid pIP 856; assay type: cell-based; settings: without substance 2.3
[8] = system: F′lac plasmid of E. coli K12; assay type: cell-based
Procedure: as §4

[9] = system: RN 4220 S. aureus, plasmid pCRG 1600; assay type: cell-based; settings: without substance 2.1
[10] = system: E. coli K12 J5-3 (R27) donor to E. coliχ1037 recipient; settings: donor E. coli K12 J5-3 (R27)
Procedure: (§5) We made tenfold dilutions of fresh donor culture of E. coli C600 R144 drd-3 and of fresh recipient culture resistant to i^r and in some cases to nalid-x acid of E. coli K12 W1 at optical density of 0.4 ([…]), then we mixed together 1.0 ml of donor culture and 1.0 ml of recipient culture and kept the samples at the temperature 37° C. 0 to 24 hours in presence of the applied compounds.
(§6) As control the mixture of donor and recipient cultures of the same proportion was incubated.
(§7) We performed experiments of two types to clarify the manner of action. The donor cells were previously treated during 5 minutes with the compound to be examined being in corresponding concentration, and the recipient cells were added thereafter in the experiments of one type The compounds to be examined were added 5 minutes after mixing together the donor and recipient cultures in the experiments of the other type. The target of our examinations was the inhibition of the conjugated transfer at the formed pairs. We made tenfold dilutions of the samples with physiological saline solution, the formed pairs of cells were divided by shaking during 1 minute then we made following dilutions where no more resistance transfer passed (see. Beverley and fellow-workers, 1981).
(§8) We streaked quantities of 0.1 ml form the dilutions onto MTE agar plates containing 50 μg/ml of kanamycine and onto plates containing 500 μg/ml of sodium azide to determine the number of recombinants. The number of donor bacteria was established only on the culture medium containing kanamycine, the number of recipient ones was established only on the culture medium containing sodium azide. The plates were kept during 48 hours at 37° C.

[11] = system: E. coli K12 J5-3 (R16) donor to E. coliχ1037 recipient; settings: donor E. coli K12 J5-3 (R16)
Procedure: as §5, §6, §7, §8

[12] = system: E. coli K 12 F′lac1 donor to E coliχ1037 recipient
Procedure: as §5, §6, §7, §8

[13] = system: E. coli K12 J5-3 (R386) donor to E. coliχ1037 recipient; settings: donor E. coli K12 J5-3 (R386)
Procedure: as §5, §6, §7, §8

[14] = system: E. coli K12 F′lac2 donor to E. coliχ1037 recipient
Procedure: as §5, §6, §7, §8

E. coli = test: Bacteriostatic effect (MIC), serial dilution in liquid culture medium; assay type: cell-based
[15] = dose of 500 mg/kg, intraperitoneal, 5 mice
[16] = concentration of elimination 62,5 mg/ml
[17] = concentration of elimination 312, mg/ml
[18] = concentration of elimination 25 mg/ml
[19] = concentration of elimination 33 mg/ml
[20] = concentration of elimination 18 mg/ml
[21] = second line for FC-2006/C, concentration of elimination not given

## C[N+](C)(C)CCOC(=O)c1ccc(OCCC[Si](C)(C)C)cc1.[I-] [Sila-439, 4-(3-trimethyl-silil-propyloxy)-benzoic acid-2-dimethyl-amino-ethyl-ester-methoiodide]
mice; 50 mg/kg (0.01 ml/mouse) i.p., 2 hours
  Toxicity (i.p), mice alive per mice inoculated: 5/5
mice; 50 mg/kg (0.01 ml/mouse) i.p., 6 hours
  Toxicity (i.p), mice alive per mice inoculated: 5/5
mice; 50 mg/kg (0.01 ml/mouse) i.p., 9 hours
  Toxicity (i.p), mice alive per mice inoculated: 5/5
mice; 50 mg/kg (0.01 ml/mouse) i.p., 12 hours
  Toxicity (i.p), mice alive per mice inoculated: 5/5
mice; 50 mg/kg (0.01 ml/mouse) i.p., 24 hours
  Toxicity (i.p), mice alive per mice inoculated: 5/5
mice; 500 mg/kg (0.1 ml/mouse) i.p., 2 hours
  Toxicity (i.p), mice alive per mice inoculated: 0/5
mice; dose of 50 mg/kg, intraperitoneal
  Condition of the mice after inoculation: lived and moved vividly exactly like those in the control group
mice; [15]
  Mortality after inoculation: all the five mice died
  Spasms after inoculation: spasms occurred in the 5 inoculated mice in two minutes
[1]
  MIC (minimal inhibiting concentration): 180 μ/ml
[2]
  MIC (minimal inhibiting concentration): 0.08 mg/mL
[3]
  MIC (minimal inhibiting concentration): 0.07 mg/mL
plasmid
  Concentration at which the antiplasmid effect manifests: 40 µg/mL
  Plasmid eliminating ability: outstanding plasmid eliminating ability
  Eliminating ability (in words): extraordinary good eliminating ability; also recorded: very good plasmid elimination effect
plasmid; three compounds effective from 36 studied
  Antiplasmid effect in in vitro experiments: effective

## CC[n+]1c(-c2ccccc2)c2cc(N)ccc2c2ccc(N)cc21 [Ethidium bromide, reference compound]
[4]; [16]
  Frequency of elimination (%) ApTC: 24%
  Frequency of elimination (%) TC: 30%
[4]; [17]
  Frequency of elimination (%) ApTC: 0%
  Frequency of elimination (%) TC: 10%
[5]; plasmid pIP 855, 1.95 μg/ml
  Frequency of elimination (%): 9.4%
[6]; plasmid pBI 109 PGL, 3.9 μg/ml
  Frequency of elimination (%): 88.2%
[7]; plasmid pIP 856, 1.95 μg/ml
  Frequency of elimination (%): 12.3%
[8]; [16]
  Frequency of elimination (%) Lac: 0%
[8]; [17]
  Frequency of elimination (%) Lac: 0%
[9]; plasmid pCRG 1600, 62.5 μg/ml
  Frequency of elimination (%): 2.8%

## CCCC[Si](C)(C)COc1ccc(C(=O)OCCC[N+](C)(C)C)cc1.[I-] [FC-2012, 4-(dimethyl-n-butyl-silil-methyloxy)-benzoic acid-3-dimethylamino-propyl-ester-methoiodide]
[10]; in concentration of 30 μg/ml, without substance 2.5 × 10^−4
  Frequency of transfer: 2.3 × 10^−4***
[11]; in concentration of 30 μg/ml, without substance 1.2 × 10^−2
  Frequency of transfer: 1 × 10^−3***
[12]; donor E. coli K 12 F′lac1, in concentration of 15 μg/ml, without substance 0.8 × 10^−6
  Frequency of transfer: 0**
[13]; in concentration of 30 μg/ml, without substance 0.4
  Frequency of transfer: 0.6 × 10^−1***
[14]; donor E. coli K12 F′lac2, in concentration of 15 μg/ml, without substance 0.2 × 10^−5
  Frequency of transfer: 0**
[4]; [18]
  Frequency of elimination (%) ApTC: 2%
  Frequency of elimination (%) TC: 10%
[4]; [19]
  Frequency of elimination (%) ApTC: 27%
  Frequency of elimination (%) TC: 58%
[5]; plasmid pIP 855, 7.8 μg/ml
  Frequency of elimination (%): 41.9%
[6]; plasmid pBI 109 PGL, 7.,8 μg/ml
  Frequency of elimination (%): 88.0%
[7]; plasmid pIP 856, 7.8 μg/ml
  Frequency of elimination (%): 34.6%
plasmid
  Eliminating ability (in words): good eliminating ability
E. coli
  MIC: 39 mg/mL
[8]; [18]
  Frequency of elimination (%) Lac: 0%
[8]; [19]
  Frequency of elimination (%) Lac: 0%
[9]; plasmid pCRG 1600, 7.8 μg/ml
  Frequency of elimination (%): 10.1%

## 4(dimethyl-n-butyl-silil-methyloxy)-benzoic acid-(3-pyridyl)-methylester-methoiodide [FC-2006/C]
[10]; in concentration of 24.7 μg/ml, without substance 0.2 × 10
  Frequency of transfer: 0.2 × 10^−1
[11]; in concentration of 24.7 μg/ml, without substance 0.3 × 10^−1
  Frequency of transfer: 0.3 × 10^−3
[12]; donor E. coli K 12 F′lac1, in concentration of 24.7 μg/ml, without substance 0.6 × 10^−6
  Frequency of transfer: 2.2 × 10^−6
[13]; in concentration of 24.7 μg/ml, without substance 0.5 × 10^−1
  Frequency of transfer: 0.9 × 10^−2
[14]; donor E. coli K12 F′lac2, in concentration of 24.7 μg/ml, without substance 0.6 × 10^−6
  Frequency of transfer: 3 × 10^−6
[4]; [20]
  Frequency of elimination (%) ApTC: 0%
  Frequency of elimination (%) TC: 0%
[4]; [21]
  Frequency of elimination (%) ApTC: 0%
  Frequency of elimination (%) TC: 0%
[5]; plasmid pIP 855, 9.5 μg/ml
  Frequency of elimination (%): 69.2%
[6]; plasmid pBI 109 PGL, 9.5 μg/ml
  Frequency of elimination (%): 94.4%
[7]; plasmid pIP 856, 9.5 μg/ml
  Frequency of elimination (%): 75.1%
plasmid
  Plasmid eliminating ability: outstanding plasmid eliminating ability
  Eliminating ability (in words): good eliminating ability
plasmid; only to one E. coli plasmid
  Eliminating effect: ~100%
E. coli
  MIC: 25 mg/mL
[8]; [20]
  Frequency of elimination (%) Lac: 0%
[8]; [21]
  Frequency of elimination (%) Lac: 0%
[9]; plasmid pCRG 1600, 9.5 μg/ml
  Frequency of elimination (%): 32.6%
